Results from US20090274662A1, “Methods And Kits For The Treatment Of Inflammatory Bowel Disorder Conditions” (priority 2008, published 2009).

Conditions: male, human, in vivo
Text: The patient is prescribed a pharmaceutical composition to be taken twice each week. Each unit dose of the pharmaceutical composition comprises 7200 milligrams of delayed-release mesalamine.

Nc1ccc(O)c(C(=O)O)c1 [delayed-release mesalamine, 5-amino-2-hydroxybenzoic acid]
amount of delayed-release mesalamine absorbed into the mucosa and colonic wall: equivalent to that of 2400 milligrams mesalamine taken once-daily
